Experimental data published in patent US20260356810A1, “NOVEL PIPERAZINE-BASED SULFONAMIDES AND THEIR USE AS NEUROPROTECTIVE AND/OR NEURORESTORATIVE AGENTS” (GENECODE, priority 2022, published 2026).
Like-named read-outs stand apart in the source and are kept apart here.

Target: T1, GFRα1-RET (Homo sapiens, UniProt P56159)
T1 construct: expressed in transfected cells; host or cells: MG87 murine fibroblast
Test: Luciferase assay: activation of Elk1 signaling in reporter-gene cells expressing GFRα1-RET (MG87 murine fibroblast stably transfected with PathDetect Elk-1, GFRα1, and RET)
Assay type: cell-based
Description: The purpose of this experiment was to evaluate the GFRα1-RET activity of the compounds 001-060 according to the invention.
The compounds were tested for their activating activity of Elk1 signaling using the previously developed reporter-gene-based system in cells expressing GFRα1-RET (MG87 murine fibroblast stably transfected with PathDetect Elk-1, GFRα1, and RET) disclosed in Sidorova, Y. A. et al.: “Persephin signaling through GFRα1: The potential for the treatment of Parkinson's disease.” Molecular and Cellular Neuroscience, July 2010, Vol. 44, pp. 223-232. DOI: 10.1016/j.mcn.2010.03.009. For EC50 determination, a dose-response test was performed using 6 concentrations of each tested compound. Dose-response curves were fitted using the sigmoidal dose-response (variable slope) analysis in GraphPad Prism program (Graph Pad Inc) and EC50 of agonist/activator activity was calculated. Dose-response experiments were all performed in duplicate, two times independently.
The compounds were tested for their activating activity of Elk1 signaling using the same materials and methods than for the compounds according to the invention (Example 2 herein, section “Materials and methods”).

[1] = Table 4, MG87 murine fibroblasts with PathDetect Elk-1, GFRα1, RET, 6 concentrations, duplicate, two times independently, agonist/activator activity, read-out: Luciferase Assay EC50
[2] = Table 6, comparison with comparative compounds, values for 001, 009, 010 reported from Table 4, MG87 GFRα1-RET cells, read-out: Luciferase Assay EC50
[3] = text statement on Table 6 results, GFRα1-RET luciferase assay, read-out: EC50

T1 sequence (P56159 25-429 limits assumed): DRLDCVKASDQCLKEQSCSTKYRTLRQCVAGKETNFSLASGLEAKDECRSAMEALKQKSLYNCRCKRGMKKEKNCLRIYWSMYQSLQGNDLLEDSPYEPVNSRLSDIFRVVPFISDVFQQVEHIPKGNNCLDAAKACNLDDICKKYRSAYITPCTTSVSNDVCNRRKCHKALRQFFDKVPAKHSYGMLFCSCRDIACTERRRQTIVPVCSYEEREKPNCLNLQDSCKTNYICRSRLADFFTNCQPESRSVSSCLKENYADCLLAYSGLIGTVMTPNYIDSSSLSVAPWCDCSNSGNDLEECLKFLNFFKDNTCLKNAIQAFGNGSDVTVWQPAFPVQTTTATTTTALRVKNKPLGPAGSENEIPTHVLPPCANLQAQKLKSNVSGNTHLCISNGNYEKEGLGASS
T1 sequence (P07949 29-1114 partner): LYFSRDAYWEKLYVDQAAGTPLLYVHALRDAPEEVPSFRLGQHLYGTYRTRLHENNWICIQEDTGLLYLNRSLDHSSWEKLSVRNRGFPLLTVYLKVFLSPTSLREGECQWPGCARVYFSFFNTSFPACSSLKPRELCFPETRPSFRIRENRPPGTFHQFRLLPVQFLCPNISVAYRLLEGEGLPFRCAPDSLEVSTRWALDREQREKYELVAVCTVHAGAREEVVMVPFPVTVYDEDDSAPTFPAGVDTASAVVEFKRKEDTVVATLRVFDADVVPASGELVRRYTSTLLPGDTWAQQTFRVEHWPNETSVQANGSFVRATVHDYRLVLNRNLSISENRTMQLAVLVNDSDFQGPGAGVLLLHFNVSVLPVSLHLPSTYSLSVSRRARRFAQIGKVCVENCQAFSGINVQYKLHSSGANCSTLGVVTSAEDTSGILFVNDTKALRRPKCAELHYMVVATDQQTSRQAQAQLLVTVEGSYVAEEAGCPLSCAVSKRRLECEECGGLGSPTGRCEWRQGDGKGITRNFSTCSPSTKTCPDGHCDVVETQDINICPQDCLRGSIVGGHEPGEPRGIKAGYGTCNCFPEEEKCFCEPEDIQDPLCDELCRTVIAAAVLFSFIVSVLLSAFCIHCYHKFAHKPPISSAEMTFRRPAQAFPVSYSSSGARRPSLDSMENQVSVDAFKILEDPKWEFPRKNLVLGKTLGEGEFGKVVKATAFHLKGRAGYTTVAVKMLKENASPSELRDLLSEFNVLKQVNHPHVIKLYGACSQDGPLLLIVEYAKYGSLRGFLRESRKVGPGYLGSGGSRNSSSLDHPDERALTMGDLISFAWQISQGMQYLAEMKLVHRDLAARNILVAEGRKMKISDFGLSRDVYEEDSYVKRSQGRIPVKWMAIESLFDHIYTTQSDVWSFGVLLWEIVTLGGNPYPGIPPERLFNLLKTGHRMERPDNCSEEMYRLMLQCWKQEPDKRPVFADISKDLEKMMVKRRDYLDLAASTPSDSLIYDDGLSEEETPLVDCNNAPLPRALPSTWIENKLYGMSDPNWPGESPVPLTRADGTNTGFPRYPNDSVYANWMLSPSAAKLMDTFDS

| SMILES | EC50 [1] [µM] | EC50 [2] [µM] | EC50 [3] [µM] |
| --- | --- | --- | --- |
| COc1ccc(S(=O)(=O)N2CCN(CC(C)c3ccccc3)CC2)cc1N1CCN(C(=O)c2ccc(F)cc2Cl)CC1 (racemic) [Compound 053, (2-chloro-4-fluoro-phenyl)-[4-[2-methoxy-5-[4-[rac-(2R)-2-phenylpropyl]piperazin-1-yl]sulfonyl-phenyl]piperazin-1-yl]methanone] | 1 to 5 | – | – |
| COc1ccc(S(=O)(=O)N2CCN(CC(C)c3ccc(F)cc3)CC2)cc1N1CCN(C(=O)c2ccc(F)cc2Cl)CC1 (racemic) [Compound 054, (2-chloro-4-fluoro-phenyl)-[4-[2-methoxy-5-[4-[rac-(2R)-2-(4-fluorophenyl)propyl]piperazin-1-yl]sulfonyl-phenyl]piperazin-1-yl]methanone] | < 1 | – | – |
| CCN(CC)S(=O)(=O)c1ccc(OC)c(N2CCN(C(=O)c3ccc(F)cc3Cl)CC2)c1 [Compound 001, 3-[4-(2-chloro-4-fluoro-benzoyl)piperazin-1-yl]-N,N-diethyl-4-methoxy-benzenesulfonamide] | 5 to 10 | 5 to 10 | < 10 |
| CCN(CC)S(=O)(=O)c1ccc(OC)c(N2CCN(C(=O)c3cc(F)c(F)cc3Cl)CC2)c1 [Compound 002, 3-[4-(2-chloro-4,5-difluoro-benzoyl)piperazin-1-yl]-N,N-diethyl-4-methoxy-benzenesulfonamide] | 5 to 10 | – | – |
| COc1ccc(S(=O)(=O)N2CCCC2)cc1N1CCN(C(=O)c2ccc(Cl)cc2Cl)CC1 [Compound 003, (2,4-dichlorophenyl)-[4-(2-methoxy-5-pyrrolidin-1-ylsulfonyl-phenyl)piperazin-1-yl]methanone] | 10 to 50 | – | – |
| COc1ccc(S(=O)(=O)N2CCCC2)cc1N1CCN(C(=O)c2ccc(F)cc2Cl)CC1 [Compound 004, (2-chloro-4-fluoro-phenyl)-[4-(2-methoxy-5-pyrrolidin-1-ylsulfonyl-phenyl)piperazin-1-yl]methanone] | 1 to 5 | – | – |
| CCCN(C)S(=O)(=O)c1ccc(OC)c(N2CCN(C(=O)c3cc(F)c(F)cc3Cl)CC2)c1 [Compound 005, 3-[4-(2-chloro-4,5-difluoro-benzoyl)piperazin-1-yl]-4-methoxy-N-methyl-N-propyl-benzenesulfonamide] | 1 to 5 | – | – |
| CCCN(C)S(=O)(=O)c1ccc(OC)c(N2CCN(C(=O)c3ccc(F)cc3C(F)F)CC2)c1 [Compound 006, 3-[4-[2-(difluoromethyl)-4-fluoro-benzoyl]piperazin-1-yl]-4-methoxy-N-methyl-N-propyl-benzenesulfonamide] | 1 to 5 | – | – |
| COc1ccc(S(=O)(=O)N2CCC(Cc3ccccc3)CC2)cc1N1CCN(C(=O)c2ccccc2C(F)F)CC1 [Compound 007, [4-[5-[(4-benzyl-1-piperidyl)sulfonyl]-2-methoxy-phenyl]piperazin-1-yl]-[2-(difluoromethyl)phenyl]methanone] | 1 to 5 | – | – |
| COc1ccc(S(=O)(=O)N2CCC(Cc3ccccc3)CC2)cc1N1CCN(C(=O)c2ncc(F)cc2Cl)CC1 [Compound 008, [4-[5-[(4-benzyl-1-piperidyl)sulfonyl]-2-methoxy-phenyl]piperazin-1-yl]-(3-chloro-5-fluoro-2-pyridyl)methanone] | 5 to 10 | – | – |
| COc1ccc(S(=O)(=O)N2CCC(Cc3ccccc3)CC2)cc1N1CCN(C(=O)c2cc(F)c(F)cc2Cl)CC1 [Compound 009, [4-[5-[(4-benzyl-1-piperidyl)sulfonyl]-2-methoxy-phenyl]piperazin-1-yl]-(2-chloro-4,5-difluoro-phenyl)methanone] | < 1 | < 1 | < 10 |
| COc1ccc(S(=O)(=O)N2CCC(Cc3ccccc3)CC2)cc1N1CCN(C(=O)c2ccc(F)cc2C(F)F)CC1 [Compound 010, [4-[5-[(4-benzyl-1-piperidyl)sulfonyl]-2-methoxy-phenyl]piperazin-1-yl]-[2-(difluoromethyl)-4-fluoro-phenyl]methanone] | 1 to 5 | 1 to 5 | < 10 |
| COc1ccc(S(=O)(=O)N2CCC(O)(c3ccccc3)CC2)cc1N1CCN(C(=O)c2ccc(F)cc2Cl)CC1 [Compound 011, (2-chloro-4-fluoro-phenyl)-[4-[5-[(4-hydroxy-4-phenyl-1-piperidyl)sulfonyl]-2-methoxy-phenyl]piperazin-1-yl]methanone] | 5 to 10 | – | – |
| COc1ccc(S(=O)(=O)N2CCC(O)(Cc3ccccc3)CC2)cc1N1CCN(C(=O)c2ccc(F)cc2Cl)CC1 [Compound 012, [4-[5-[(4-benzyl-4-hydroxy-1-piperidyl)sulfonyl]-2-methoxy-phenyl]piperazin-1-yl]-(2-chloro-4-fluoro-phenyl)methanone] | 5 to 10 | – | – |
| COc1ccc(S(=O)(=O)N2CCN(Cc3ccccc3)CC2)cc1N1CCN(C(=O)c2ccc(F)cc2Cl)CC1 [Compound 013, [4-[5-(4-benzylpiperazin-1-yl)sulfonyl-2-methoxy-phenyl]piperazin-1-yl]-(2-chloro-4-fluoro-phenyl)methanone] | 5 to 10 | – | – |
| COc1ccc(S(=O)(=O)N(C)CC2CCC2)cc1N1CCN(C(=O)c2ccc(F)cc2Cl)CC1 [Compound 014, 3-[4-(2-chloro-4-fluoro-benzoyl)piperazin-1-yl]-N-(cyclobutylmethyl)-4-methoxy-N-methyl-benzenesulfonamide] | 5 to 10 | – | – |
| COc1ccc(S(=O)(=O)N(C)CC2CCCCC2)cc1N1CCN(C(=O)c2ccc(F)cc2Cl)CC1 [Compound 015, 3-[4-(2-chloro-4-fluoro-benzoyl)piperazin-1-yl]-N-(cyclohexylmethyl)-4-methoxy-N-methyl-benzenesulfonamide] | 5 to 10 | – | – |
| COc1ccc(S(=O)(=O)N(C)C2CCCC2)cc1N1CCN(C(=O)c2ccc(F)cc2Cl)CC1 [Compound 016, 3-[4-(2-chloro-4-fluoro-benzoyl)piperazin-1-yl]-N-cyclopentyl-4-methoxy-N-methyl-benzenesulfonamide] | 5 to 10 | – | – |
| COc1ccc(S(=O)(=O)N(C)C2CCCCC2)cc1N1CCN(C(=O)c2ccc(F)cc2Cl)CC1 [Compound 017, 3-[4-(2-chloro-4-fluoro-benzoyl)piperazin-1-yl]-N-cyclohexyl-4-methoxy-N-methyl-benzenesulfonamide] | 1 to 5 | – | – |
| COc1ccc(S(=O)(=O)N(C)C2(C)COC2)cc1N1CCN(C(=O)c2ccc(F)cc2Cl)CC1 [Compound 018, 3-[4-(2-chloro-4-fluoro-benzoyl)piperazin-1-yl]-4-methoxy-N-methyl-N-(3-methyloxetan-3-yl)benzenesulfonamide] | 10 to 50 | – | – |
| COc1ccc(S(=O)(=O)N(C)Cc2ccccc2)cc1N1CCN(C(=O)c2ccc(F)cc2Cl)CC1 [Compound 019, N-benzyl-3-[4-(2-chloro-4-fluoro-benzoyl)piperazin-1-yl]-4-methoxy-N-methyl-benzenesulfonamide] | 10 to 50 | – | – |
| COc1ccc(S(=O)(=O)N(C)Cc2cccc(Cl)c2)cc1N1CCN(C(=O)c2ccc(F)cc2Cl)CC1 [Compound 020, 3-[4-(2-chloro-4-fluoro-benzoyl)piperazin-1-yl]-N-[(3-chlorophenyl)methyl]-4-methoxy-N-methyl-benzenesulfonamide] | 1 to 5 | – | – |
| COc1ccc(S(=O)(=O)N(C)Cc2ccc(F)cc2)cc1N1CCN(C(=O)c2ccc(F)cc2Cl)CC1 [Compound 021, 3-[4-(2-chloro-4-fluoro-benzoyl)piperazin-1-yl]-N-[(4-fluorophenyl)methyl]-4-methoxy-N-methyl-benzenesulfonamide] | 5 to 10 | – | – |
| COc1ccc(S(=O)(=O)N2CC3CN(C(=O)OC(C)(C)C)CC3C2)cc1N1CCN(C(=O)c2ccc(F)cc2Cl)CC1 (stereo not shown) [Compound 022, tert-butyl 5-[3-[4-(2-chloro-4-fluoro-benzoyl)piperazin-1-yl]-4-methoxy-phenyl]sulfonyl-1,3,3a,4,6,6a-hexahydropyrrolo[3,4-c]pyrrole-2-carboxylate] | 10 to 50 | – | – |
| COc1ccc(S(=O)(=O)N2CCC(=Cc3ccccc3)CC2)cc1N1CCN(C(=O)c2ccc(F)cc2Cl)CC1 [Compound 023, [4-[5-[(4-benzylidene-1-piperidyl)sulfonyl]-2-methoxy-phenyl]piperazin-1-yl]-(2-chloro-4-fluoro-phenyl)methanone] | < 1 | – | – |
| COc1ccc(S(=O)(=O)N2CCC(CCc3ccccc3)CC2)cc1N1CCN(C(=O)c2ccc(F)cc2Cl)CC1 [Compound 024, (2-chloro-4-fluoro-phenyl)-[4-[2-methoxy-5-[[4-(2-phenylethyl)-1-piperidyl]sulfonyl]phenyl]piperazin-1-yl]methanone] | < 1 | – | – |
| COc1ccc(S(=O)(=O)N2CCC(c3ccccc3)CC2)cc1N1CCN(C(=O)c2ccc(F)cc2Cl)CC1 [Compound 025, (2-chloro-4-fluoro-phenyl)-[4-[2-methoxy-5-[(4-phenyl-1-piperidyl)sulfonyl]phenyl]piperazin-1-yl]methanone] | < 1 | – | – |
| COc1ccc(S(=O)(=O)N2CCCC(c3ccccc3)C2)cc1N1CCN(C(=O)c2ccc(F)cc2Cl)CC1 (stereo not shown) [Compound 026, (2-chloro-4-fluoro-phenyl)-[4-[2-methoxy-5-[[3-phenyl-1-piperidyl]sulfonyl]phenyl]piperazin-1-yl]methanone] | 1 to 5 | – | – |
